# Counter-ions that a name gives are not always drawn. Like-named read-outs stand apart in the source and are kept apart here.
# How the values were obtained:
# [1] = test system: HIF-1 target genes VEGF, glucose transporter-1 (Glut-1) and aldolase; test: Northern blotting of mRNA of endogenous HIF-1 target genes in HepG2 cells; assay type: cell-based, human; details: HepG2 cells treated for 24, 48 and 72 hours; control genes L28 and β-actin not induced
# Procedure: (§1) The HRCHO5 cells containing a stable transfected, HIF-1-dependent reporter gene were described previously (Wanner, R. M., et al. (2000), Epolones Induce Erythropoietin Expression Via Hypoxia-Inducible Factor-1α Activation, Blood 96, 1558-1565). The human HepG2 hepatoma cell line was obtained from American Type Culture Collection (ATCC numbers HB-8065). All cell lines were cultured in Dulbecco's modified Eagle's medium (DMEM, high glucose, Life Technologies) supplemented with 10% heat-inactivated FCS, 100 U/ml penicillin, 100 μg/ml streptomycin, 1× non-essential amino acids and 1 mM Na-pyruvate (all purchased from Life Technologies) in a humidified atmosphere containing 5% CO2 at 37° C. Oxygen partial pressures in the incubator (Forma Scientific, model 3131) were either 140 mm Hg (20% 02 v/v, normoxia) or 7 mm Hg (1% O2 v/v, hypoxia). Ciclopirox olamine (CPX), deferoxamine mesylate (DFX) and 2,2′-dipyridyl (DP) were purchased from Sigma. Stock solutions of CPX and DP were prepared in methanol at 0.5 M and 1 M, respectively. DFX was freshly dissolved at 10 mM into the cell culture medium.
# HIF-1α protein = HIF-1α protein induction in HepG2 hepatoma cells; assay type: cell-based, human; details: for HIF-1α levels, combination with hypoxia: CPX plus hypoxia (1% O2)
# Procedure: as §1
# isolated rat kidneys = test: Isolated perfused rat kidney (ex vivo model)
# From the text: Systemically administered DFX can induce ubiquitous HIF-1 stability and kidney-specific erythropoietin expression in mice (Wang, G. L., and Semenza, G. L. (1993), Desferrioxamine Induces Erythropoietin Gene Expression and Hypoxia-Inducible Factor 1 DNA-Binding Activity: Implications for Models of Hypoxia Signal Transduction, Blood 82, 3610-3615). Regarding a topical application of CPX as a HIF-1-inducing agent for therapeutic angiogenesis, it was important to test whether CPX could lead to a systemic induction of VEGF. […]
# rabbit skin = details: 1% CPX solution applied on rabbit skin over 20 days; cited from earlier work
# [2] = test system: chicken chorioallantoic membrane (CAM)
# Procedure: CAM assays were performed as described by Olivo, M. et al. (A Comparative Study on The Effects of Tumor Necrosis Factor-A (TNF-α), Human Angiogenic Factor (h-AF) and Basic Fibroblast Growth Factor (bFGF) on the Chorioallantoic Membrane of the Chick Embryo, (1992) Anat. Rec. 234, 105-115). Briefly, fertilized eggs (purchased from Lohmann Tierzucht, Cuxhaven, Germany) were incubated at 37° C. in a humidified atmosphere. The eggs were kept on their sides and turned upside down twice a day. After 6 days, a small hole was drilled through the shell into the air sac (visualized using a strong light source) and a window of approximately 0.5 cm^2 was sawed into the side of the egg. The window was sealed with tape and the eggs were reincubated until day 9, when 6-cyclohexyl-1-hydroxy-4-methyl-2(1H)-pyridone 2-aminoethanol salt (CPX) was applied to the CAM using the Elvax® method (see Olivo, M. et al. above). Therefore, ethylene/vinyl acetate copolymer beads (Elvax®) 40L-03, DuPont, provided by C. H. Erbslöh KG, Krefeld, Germany) were extensively washed in ethanol and dried under reduced pressure. The Elvax® beads were then dissolved in methylene chloride at 10% (w/v) and CPX was added to the desired concentration. One drop (40 μL) of this solution was pipetted onto a siliconized glass slide and the solvent was allowed to evaporate completely. Using forceps, the Elvax® disc was carefully lifted from the glass slides and placed onto the CAM. At day 11, the window was enlarged and the CAM was documented using a digital camera (Olympus) coupled to an ocular of a stereomicroscope.
# Therefore, the chicken CAM at day 9 of development was overlaid with inert polymer discs containing various concentrations of CPX or solvent only.
# VEGF promoter = test: VEGF promoter-driven luciferase reporter gene assay in transiently transfected HepG2 cells; assay type: cell-based, human; details: increasing concentrations of CPX for 24 hours
# Procedure: The HRCHO5 cells containing a stable transfected, HIF-1-dependent reporter gene were described previously (Wanner, R. M., et al. (2000), Epolones Induce Erythropoietin Expression Via Hypoxia-Inducible Factor-1α Activation, Blood 96, 1558-1565). The human HepG2 hepatoma cell line was obtained from American Type Culture Collection (ATCC numbers HB-8065). All cell lines were cultured in Dulbecco's modified Eagle's medium (DMEM, high glucose, Life Technologies) supplemented with 10% heat-inactivated FCS, 100 U/ml penicillin, 100 μg/ml streptomycin, 1× non-essential amino acids and 1 mM Na-pyruvate (all purchased from Life Technologies) in a humidified atmosphere containing 5% CO2 at 37° C. […]
# HepG2 cells were transiently electroporated with a VEGF promoter-driven luciferase construct as described previously (Ikeda, E., et al. (1995), Hypoxia-Induced Transcriptional Activation and Increased mRNA Stability of Vascular Endothelial Growth Factor in C6 Glioma Cells, J. Biol. Chem. 270, 19761-19766). Following stimulation, transiently and stable transfected cells were lysed in passive lysis buffer (Promega) and the luciferase activity was determined using a luciferase assay kit according to the manufacturer's instructions (Promega) in a 96-well luminometer (MicroLumat LB96P, EG&G Berthold). […] Absorbances at 570 nm were determined in a 96-well photometer (Rainbow, SLT Labsystems). […]
# VEGF protein = test: Accumulation of VEGF protein in the supernatant of the HepG2 cell culture; assay type: cell-based, human; details: following 6 or 24 hours of treatment
# Procedure: as §1
# NMRI mice = test: Mouse skin wound model (punch-through ear holes); details: dermal cream containing 1% CPX, daily
# Procedure: Both ears of adult NMRI mice were wounded under anesthesia with 100 mg/kg ketamine (Narketan®) and 5 mg/kg xylazine (Rompun®) by punch-through holes of 2 mm diameter using a standard ear-punching tool. The ears were treated daily with a common skin cream containing (Batrafen®) or not containing 1% (w/v) CPX. One ear was treated with CPX and the other ear with the control cream. The amount of cream was sufficient to cover the hole and was equally distributed over the entire ear.
# Punch-through ear holes of 2 mm diameter (a widespread way of marking mice in animal facilities) were treated daily with a commercially available dermal cream containing 1% CPX on one ear and a CPX-free but otherwise identical common dermal cream on the other ear, respectively.
# [3] = test system: gram-positive and gram-negative bacteria; details: cited from earlier work
# HIF-1 = details: systemically administered, mice; cited from earlier work
# [4] = higher CPX concentrations (33 μM and 100 μM)
# [5] = perfused 3 hours, normoxic, 0.1 μM to 100 μM
smiles,measurement,setting,value
"Cc1cc(C2CCCCC2)n(O)c(=O)c1.NCCO [CPX, 6-cyclohexyl-1-hydroxy-4-methyl-2(1H)-pyridone 2-aminoethanol salt]",expression of VEGF mRNA,[1],induced
same,expression of aldolase mRNA,[1],induced
same,expression of glucose transporter-1 (Glut-1) mRNA,[1],induced
same,HIF-1α protein,"HIF-1α protein; 5 μM to 20 μM, normoxic HepG2 cells, after 6 and 24 hours of treatment",strongly induced
same,"HIF-1α levels, combination with hypoxia",HIF-1α protein; after 6 hours,did not further increase
same,"HIF-1α levels, combination with hypoxia",HIF-1α protein; after 24 hours of treatment,decreased
same,albumin and sodium excretion rates,isolated rat kidneys; [4],strong increase
same,kidney function,isolated rat kidneys; [4],down regulation
same,Glut-1 mRNA level,isolated rat kidneys; [5],did not induce
same,VEGF mRNA level,isolated rat kidneys; [5],did not induce
same,aldolase mRNA level,isolated rat kidneys; [5],did not induce
same,Glut-1 mRNA level under hypoxic perfusion,isolated rat kidneys; perfusion with 3% oxygen for 3 hours plus CPX,not further elevated
same,reddening of experimentally wounded skin,rabbit skin,persistent reddening
same,reddening of healthy skin,rabbit skin,occasionally transient reddening
same,number of CAMs showing angiogenesis,"[2]; 50 mM CPX, all 7 control CAMs lacked angiogenesis",10
same,CAM angiogenesis,[2]; polymer discs containing 5 mM CPX,indistinguishable from the controls
same,CAM angiogenesis,"[2]; polymer discs containing 50 mM CPX, two days of incubation",consistently induced CAM angiogenesis
same,toxicity to the chick embryo,[2]; polymer discs containing 500 mM CPX,toxic
same,luciferase activity (1180 bp VEGF promoter fragment),VEGF promoter,dose-dependent increase
same,VEGF protein in the supernatant,VEGF protein,increased in a dose-dependent manner
same,animals showing reddening of the wound margin,NMRI mice,4 of 10
same,reddening of the wound margin,NMRI mice,can cause reddening
same,angiogenesis in mouse skin wound model,NMRI mice; ear holes of 2 mm diameter,can induce angiogenesis
same,effectiveness against gram-positive and gram-negative bacteria,[3],effective
"CC(=O)N(O)CCCCCNC(=O)CCC(=O)N(O)CCCCCNC(=O)CCC(=O)N(O)CCCCCN [DFX, deferoxamine mesylate]",expression of VEGF mRNA,[1],induced
same,expression of aldolase mRNA,[1],induced
same,expression of glucose transporter-1 (Glut-1) mRNA,[1],induced
same,kidney-specific erythropoietin expression,HIF-1,can induce
same,ubiquitous HIF-1 stability,HIF-1,can induce
"c1ccc(-c2ccccn2)nc1 [DP, 2,2′-dipyridyl]",expression of VEGF mRNA,[1],induced
same,expression of aldolase mRNA,[1],induced
same,expression of glucose transporter-1 (Glut-1) mRNA,[1],induced
